Results reported in patent US20260258025A1, “INHIBITORS OF TDP-43 AND TAU AGGREGATION” (Aquinnah Pharmaceuticals, inc., priority 2023, published 2026).
“Also recorded” adds a separate entry of the source.

Test system: TDP-43 nuclear localization
Test: TDP-43 localization analysis by immunofluorescence in MG-132 challenged iP11NA human motor neurons
Format: cell-based
Method: Cell culture and differentiation of iPS Cells into motor neurons. Pluripotent stem cells were grown with mTeSR Plus medium on tissue culture dishes coated with Matrigel, and maintained in 5% CO2 incubators at 37° C. Stem cells were passaged as small aggregates of cells after 1 mM EDTA treatment. […] was added to the cultures for 16-24 h after dissociation to prevent cell death. The iP11NA iPS cell line was acquired from ALSTEM. This cell line was generated from pre-made footprint-free human iPS cells with DOX inducible Ngn2 that has been stably integrated into the human AAVS1 “Safe Harbor” site, and provides a convenient means to differentiate human iPS cells into neurons rapidly and efficiently. Motor neuron differentiation was achieved using a modified 5-day strategy.
This approach relies on neural induction through small molecule inhibition of SMAD signaling, accelerated neural differentiation through forced Ngn2 expression, and motor neuron patterning through the activation of retinoic acid and Sonic Hedgehog signaling pathways. In brief, pluripotent stem cells were dissociated to single cells using accutase and plated at a density of 80,000 cells per cm^2 on Matrigel-coated culture plates with mTeSR Plus medium supplemented with ROCK inhibitor (10 μM Y-27632, ATCC). When cells reached 50% confluency, medium was changed to differentiation medium BrainPhys medium supplemented with N2-A, SM1, […]. This time point was defined as day 0 (d0) of motor neuron differentiation. Treatment with small molecules was carried out as follows: 2 μg/mL Doxycyline, 10 μM SB431542, 100 nM LDN-193189, […] and 1 μM Smoothend agonist and 10 uM Edu. […]
A dose-responsive effect was further tested for Compound 183 using quantitative imaging analysis on the CellInsight™ CX7 High Content Analysis Platform. By comparing the intensity of TDP-43 staining in the nucleus and cytoplasm of human motor neurons, we determined Compound 183 could maintain nuclear TDP-43 from 370 nM-10 μM in the proteasome challenged motor neurons (see FIG. 2).

## Cc1cc(-c2ccc(C3CCN(C(C)C)CC3)cc2)sc1C(=O)N1CC[C@H](N)C1 [Compound 183, (S)-(3-aminopyrrolidin-1-yl)(5-(4-(1-isopropylpiperidin-4-yl)phenyl)-3-methylthiophen-2-yl)methanone]
500 nM Compound 183, pretreated 1 hour and during 1 μM MG-132 for 20 hours, human motor neurons
  nuclear TDP-43 staining (immunofluorescence): preventing TDP-43 nuclear clearance; also recorded: TDP-43 staining in the nucleus was observed that was much more similar to that of unchallenged neurons
MG-132 1 μM challenged human motor neurons, CX7 quantitative imaging, effective concentration range
  maintenance of nuclear TDP-43, dose response (nuclear vs cytoplasmic TDP-43 staining intensity): maintaining nuclear TDP-43 in a dose-dependent manner
